Read-outs that look alike come from different tables or passages of the source.
Experiments:
A-431 = assay: In vitro cytotoxicity, A-431; format: cell-based; details: average ± SD, n = 3-4
Protocol: (§1) In order to evaluate the anticancer activity of the cyclotriphosphazene-taxol conjugates of the present invention, in vitro cytotoxicity of the representative compound of Example 1 was assayed both in saline and in pure water according to a standard testing procedure (Y. J. Jun, et al., J. Inorg. Biochem. (2005) 99:1593-1601), and the test results are shown in Table 1 below.

[1] = DLS measurement of micelle formation and micelle size; format: physicochemical; details: 0.1 to 0.5% in distilled water, Malvern Zetasizer (Nano-ZS)
Protocol: It was determined by a DLS (dynamic light scattering) method whether the cyclotriphosphazene-taxol conjugates prepared according to the present invention are aggregated in aqueous solution through interaction of the hydrophobic oligopeptide groups, so as to form micelles, according to the following procedure: A size distribution of an aqueous solution, in which 0.1 to 0.5% of the cyclotriphosphazene-taxol conjugate prepared in Example 1 was dissolved in distilled water, was measured by a DLS method using Malvern Zetasizer (Nano-ZS).

[2] = system: MDA-MB-231 breast cancer cell line; assay: In vitro cytotoxicity, MDA-MB-231; format: cell-based; details: average ± SD, n = 3-4
Protocol: as §1

[3] = system: SK-OV3 ovarian cancer cell line; assay: In vitro cytotoxicity, SK-OV3; format: cell-based; details: average ± SD, n = 3-4
Protocol: as §1

[4] = system: MCF-7 breast cancer cell line; assay: In vitro cytotoxicity, MCF-7; format: cell-based; details: average ± SD, n = 3-4
Protocol: as §1

[5] = Blood metabolism study in rats (HPLC of blood samples); format: in vivo, male Sprague-Dawley rats; details: rat
Protocol: To a group consisting of 4 male Sprague-Dawley rats (270-300 g) was administered the compound of Example 2 dissolved in a PBS solution at a concentration of 6.67 mg/ml by intravenous infusion with a dosage of 5 mg/kg for 3 minutes. After the drug administration, blood (100 μl) samples were taken from each rat for 48 hours at 0, 0.08, 0.5, 1, 2, 3, 4, 6, 8, 12, 24, 36 and 48 hours post injection, and the samples were analyzed with HPLC, and the results are presented in Table 2 below.

[6] = intravenous infusion 5 mg/kg for 3 minutes, average

In the case of “[tris(methoxy-polyethyleneglycol350)][tris(glycyllysinemethylester)-mono-2′-succinyltaxol]cyclotriphosphazene [Example 1]”, the IC50 (A-431; in pure water) is reported as 380 ± 89.2 nM, the IC50 (A-431; in saline solution) is reported as 53.8 ± 13.9 nM and the “micelle radius (DLS)” value [1] is reported as 105 nm. The IC50 ([2]; in pure water) was 327 ± 54.5 nM, the IC50 ([2]; in saline solution) was 108 ± 10.9 nM and the IC50 ([3]; in pure water) was 503 ± 114 nM. It also gave an IC50 ([3]; in saline solution) of 138 ± 14.3 nM, an IC50 ([4]; in pure water) of 447 ± 138 nM and an IC50 ([4]; in saline solution) of 129 ± 37.5 nM.
In the case of `CC(=O)O[C@H]1C(=O)[C@@]2(C)[C@H]([C@H](OC(=O)c3ccccc3)[C@]3(O)C[C@H](OC(=O)[C@H](O)[C@@H](NC(=O)c4ccccc4)c4ccccc4)C(C)=C1C3(C)C)[C@]1(OC(C)=O)CO[C@@H]1C[C@@H]2O` [Taxol (free), Taxol], the IC50 (A-431; Homo sapiens, A-431, free taxol) is reported as 25.1 ± 8.9 nM, the IC50 ([2]; Homo sapiens, MDA-MB-231, free taxol) is reported as 47.1 ± 12.2 nM and the AUC(0-t) ([5]; male, Sprague-Dawley, blood, intravenous infusion 5 mg/kg for 3 minutes, average, sampling to 48 hours) is reported as 1970 ng·h/mL. For the same compound, the AUC(0-inf) ([5]; male, Sprague-Dawley, blood, intravenous infusion 5 mg/kg for 3 minutes, average, read-out: AUCINF (measurement)) was 2290 ng·h/mL, the C0 ([5]; male, Sprague-Dawley, blood, intravenous infusion 5 mg/kg for 3 minutes, average, read-out: C0) was 2700 ng/mL and the AUClast/AUCINF [5, 6] was 85.9%. For the same compound, the Cl_obs [5, 6] was 556.2 mL/h, the Lambda z [5, 6] was 0.275 h⁻¹ and the Vz_obs [5, 6] was 2778.1 mL. The t½_Lambda z [5, 6] was 3.54 h, the IC50 ([3]; Homo sapiens, SK-OV-3, free taxol) was 65.8 ± 0.5 nM and the IC50 ([4]; Homo sapiens, MCF7, free taxol) was 39 ± 4.9 nM.
With “[tris(methoxy-polyethyleneglycol550)][tris(glycyllysinemethylester)-mono-2′-succinyltaxol]cyclotriphosphazene [Example 2]” the “AUCINF (measurement)” value [5, 6] was 2.55, the AUClast/AUCINF [5, 6] was 77.1% and the C0 [5, 6] was 1530 ng/mL. It also gave a Cl_obs [5, 6] of 513.3 mL/h, a Lambda z [5, 6] of 0.133 h⁻¹ and a Vz_obs [5, 6] of 4468.9 mL. For the same compound, the t½_Lambda z [5, 6] was 6.29 h, the AUClast ([5]; intravenous infusion 5 mg/kg for 3 minutes, average, sampling to 48 hours) was 1970 ng·h/mL and the “in vivo half life relative to free taxol” value ([5]; intravenous, compared with free taxol not formulated) was “twice longer”.

Reference: patent publication US20070292384A1, “Water soluble micelle-forming and biodegradable cyclotriphosphazene-taxol conjugate anticancer agent and preparation method thereof” (priority 2006, published 2007)
